Here are results for 36 compounds from ChEMBL document CHEMBL1123662, “Preparation, receptor binding, and fluorescence properties of hexestrol-fluorophore conjugates: evaluation of site of attachment, fluorophore structure, and fluorophore-ligand spacing” (J Med Chem, 1987).

This experiment in a line: Estrogen receptor binding affinity using [3H]estradiol in a competitive radioreceptor binding assay.
On to `CCCCSCC(c1ccc(O)cc1)C(CC)c1ccc(O)cc1` (stereo unspecified), for which the relative binding affinity (RBA) worked out at 61.6.

The compound `CCC(c1ccc(O)cc1)C(CC)c1ccc(O)c(CCCNS(=O)(=O)c2cccc3c(N(C)C)cccc23)c1` (stereo unspecified) showed a relative binding affinity (RBA) of 1.3.

For `CCC(c1ccc(O)cc1)C(CSCCCNc1ccc([N+](=O)[O-])c2nonc12)c1ccc(O)cc1` (stereo unspecified), the relative binding affinity (RBA) came out at 4.3.

In turn, `CCC(c1ccc(O)cc1)C(C(=O)OC)c1ccc(O)cc1` (stereo unspecified) registered a relative binding affinity (RBA) of 69.

`CCC(c1ccc(O)cc1)C(CC)c1ccc(O)c(CCCOC)c1` (stereo unspecified) registered a relative binding affinity (RBA) of 13.2.

On to `CCCCCOC(=O)CC(c1ccc(O)cc1)C(CC)c1ccc(O)cc1` (stereo unspecified), for which the relative binding affinity (RBA) came to 4.2.

For the compound `CCCCSCCCc1cc(C(CC)C(CC)c2ccc(O)cc2)ccc1O` (stereo unspecified), the relative binding affinity (RBA) was found to be 3.6.

`CCC(c1ccc(O)cc1)C(CSCCCCCCNc1ccc([N+](=O)[O-])c2nonc12)c1ccc(O)cc1` (stereo unspecified) registered a relative binding affinity (RBA) of 2.9.

Consider `CCC(c1ccc(O)cc1)C(CCI)c1ccc(O)cc1` (stereo unspecified), for which the relative binding affinity (RBA) came to 60.

As for `CCC(c1ccc(O)cc1)C(CSCCNc1ccc([N+](=O)[O-])c2nonc12)c1ccc(O)cc1` (stereo unspecified), the relative binding affinity (RBA) is 0.85.

Consider `CCC(c1ccc(O)cc1)C(CCOCCOCCCl)c1ccc(O)cc1` (stereo unspecified), for which the relative binding affinity (RBA) worked out at 16.6.

As for `CCC(c1ccc(O)cc1)C(CSCCCCCCCN1C(=O)c2ccccc2C1=O)c1ccc(O)cc1` (stereo unspecified), the relative binding affinity (RBA) amounted to 1.6.

Regarding `CCC(c1ccc(O)cc1)C(CSCCCCCCCNS(=O)(=O)c1cccc2c(N(C)C)cccc12)c1ccc(O)cc1` (stereo unspecified), the relative binding affinity (RBA) worked out at 2.6.

For `CCC(c1ccc(O)cc1)C(CC)c1ccc(O)c(CCCN2C(=O)c3cccc([N+](=O)[O-])c3C2=O)c1` (stereo unspecified), the relative binding affinity (RBA) was found to be 3.

`CCC(c1ccc(O)cc1)C(C)c1ccc(O)cc1` (stereo unspecified) had a relative binding affinity (RBA) of 133.

For `CCC(c1ccc(O)cc1)C(CSCCCCCCCNc1ccc([N+](=O)[O-])c2nonc12)c1ccc(O)cc1` (stereo unspecified), the relative binding affinity (RBA) came to 3.4.

For the compound `CCCCSCCC(c1ccc(O)cc1)C(CC)c1ccc(O)cc1` (stereo unspecified), the relative binding affinity (RBA) is 23.4.

As for `CCC(c1ccc(O)cc1)C(CC(=O)OC)c1ccc(O)cc1` (stereo unspecified), the relative binding affinity (RBA) worked out at 20.

In turn, `CCC(c1ccc(O)cc1)C(CC)c1ccc(O)c(CCCN2C(=O)c3cccc(N)c3C2=O)c1` (stereo unspecified) came in with a relative binding affinity (RBA) of 7.4.

Take `CCC(c1ccc(O)cc1)C(CC)c1ccc(O)c(CCCO)c1` (stereo unspecified): the relative binding affinity (RBA) was 12.

`CCC(c1ccc(O)cc1)C(CCO)c1ccc(O)cc1` (stereo unspecified) registered a relative binding affinity (RBA) of 16.2.

In turn, `CCC(c1ccc(O)cc1)C(CC)c1ccc(O)c(CCCNc2ccc([N+](=O)[O-])cc2[N+](=O)[O-])c1` (stereo unspecified) showed a relative binding affinity (RBA) of 1.

As for `CCC(c1ccc(O)cc1)C(COCCOCCCl)c1ccc(O)cc1` (stereo unspecified), the relative binding affinity (RBA) was 6.7.

As for `CCC(c1ccc(O)cc1)C(CSCCCCCNc1ccc([N+](=O)[O-])c2nonc12)c1ccc(O)cc1` (stereo unspecified), the relative binding affinity (RBA) stood at 3.5.

Turning to `CCC(c1ccc(O)cc1)C(CSCCCCNc1ccc([N+](=O)[O-])c2nonc12)c1ccc(O)cc1` (stereo unspecified), the relative binding affinity (RBA) was 3.9.

The compound `CCC(c1ccc(O)cc1)C(CC)c1ccc(O)c(I)c1` (stereo unspecified) displayed a relative binding affinity (RBA) of 37.

For the compound `CCC(c1ccc(O)cc1)C(CC)c1ccc(O)c(CCCOCc2ccccc2)c1` (stereo unspecified), the relative binding affinity (RBA) was 5.

The compound `CCCCCOC(=O)C(c1ccc(O)cc1)C(CC)c1ccc(O)cc1` (stereo unspecified) returned a relative binding affinity (RBA) of 39.

`CCC(c1ccc(O)cc1)C(CI)c1ccc(O)cc1` (stereo unspecified) yielded a relative binding affinity (RBA) of 172.

Compound `CCC(c1ccc(O)cc1)C(CO)c1ccc(O)cc1` (stereo unspecified) gave a relative binding affinity (RBA) of 8.9.

In the case of `CCC(c1ccc(O)cc1)C(CC)c1ccc(O)c(CCCOc2ccc([N+](=O)[O-])cc2[N+](=O)[O-])c1` (stereo unspecified), the relative binding affinity (RBA) was 1.7.

Regarding `CCC(c1ccc(O)cc1)C(CC)c1ccc(O)c(N=[N+]=[N-])c1` (stereo unspecified), the relative binding affinity (RBA) was 69.

The compound `C=CCc1cc(C(CC)C(CC)c2ccc(O)cc2)ccc1O` (stereo unspecified) gave a relative binding affinity (RBA) of 54.

Compound `CCC(c1ccc(O)cc1)C(CSCCCCN1C(=O)c2ccccc2C1=O)c1ccc(O)cc1` (stereo unspecified) returned a relative binding affinity (RBA) of 3.6.

Regarding `CCC(c1ccc(O)cc1)C(CC)c1ccc(O)c(CCCN2C(=O)c3ccccc3C2=O)c1` (stereo unspecified), the relative binding affinity (RBA) was found to be 5.4.

Compound `CCC(c1ccc(O)cc1)C(CC)c1ccc(O)c(CCCNc2ccc([N+](=O)[O-])c3nonc23)c1` (stereo unspecified) registered a relative binding affinity (RBA) of 1.5.
